Measured values: US20190127354A1, “2,4,6,7-TETRASUBSTITUTED QUINOLINE COMPOUNDS AS INHIBITORS OF DNA […]” (FUNDACIÓN PARA LA INVESTIGACIÓN MÉDICA APLICADA, priority 2015, published 2019)

Tests used:
[1] = target: T1, human G9a enzyme (Homo sapiens, UniProt Q96KQ7); experiment: G9a enzyme activity assay (TR-FRET); format: biochemical; details: 1 hour at room temperature
T1 construct: purchased BPS Biosciences 51001; host or cells: baculovirus infected Sf9 cells
T1 sequence (Q96KQ7 1-1210): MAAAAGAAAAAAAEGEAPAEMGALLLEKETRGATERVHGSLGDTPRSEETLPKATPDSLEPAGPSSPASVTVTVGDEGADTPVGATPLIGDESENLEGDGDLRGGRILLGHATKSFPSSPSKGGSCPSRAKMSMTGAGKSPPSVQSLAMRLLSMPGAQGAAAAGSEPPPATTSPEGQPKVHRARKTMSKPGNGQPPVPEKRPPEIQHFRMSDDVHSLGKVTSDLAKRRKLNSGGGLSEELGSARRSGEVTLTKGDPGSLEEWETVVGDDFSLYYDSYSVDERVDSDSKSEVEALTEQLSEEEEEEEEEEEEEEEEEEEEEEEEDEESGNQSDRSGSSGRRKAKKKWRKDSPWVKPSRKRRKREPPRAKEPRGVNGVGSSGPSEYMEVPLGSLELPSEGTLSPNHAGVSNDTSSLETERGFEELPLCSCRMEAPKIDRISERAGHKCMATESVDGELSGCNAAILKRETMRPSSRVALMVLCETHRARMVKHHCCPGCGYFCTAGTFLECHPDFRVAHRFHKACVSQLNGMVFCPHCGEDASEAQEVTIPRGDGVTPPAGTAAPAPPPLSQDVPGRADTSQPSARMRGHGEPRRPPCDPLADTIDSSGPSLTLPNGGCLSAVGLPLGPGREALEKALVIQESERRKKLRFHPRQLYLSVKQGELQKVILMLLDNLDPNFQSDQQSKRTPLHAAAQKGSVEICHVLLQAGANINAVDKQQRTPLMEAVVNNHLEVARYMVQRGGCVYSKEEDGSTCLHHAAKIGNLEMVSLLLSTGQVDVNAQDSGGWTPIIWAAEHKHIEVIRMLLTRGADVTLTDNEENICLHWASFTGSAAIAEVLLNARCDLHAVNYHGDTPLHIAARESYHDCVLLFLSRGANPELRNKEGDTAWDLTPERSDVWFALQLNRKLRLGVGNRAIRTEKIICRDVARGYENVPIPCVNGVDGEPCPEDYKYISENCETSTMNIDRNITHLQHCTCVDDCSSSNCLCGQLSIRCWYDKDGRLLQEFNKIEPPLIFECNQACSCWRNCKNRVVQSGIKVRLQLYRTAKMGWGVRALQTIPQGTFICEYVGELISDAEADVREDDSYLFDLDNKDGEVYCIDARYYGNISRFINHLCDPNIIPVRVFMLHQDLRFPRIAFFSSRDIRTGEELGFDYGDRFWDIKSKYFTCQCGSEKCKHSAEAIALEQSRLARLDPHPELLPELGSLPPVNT
Procedure: G9a Enzyme Activity Assay
The biochemical assay to measure G9a enzyme activity relies on time-resolved fluorescence energy transfer (TR-FRET) between europium cryptate (donor) and XL665 (acceptor). […] The human G9a enzyme expressed in a baculovirus infected Sf9 cell expression system was obtained from BPS Biosciences (Cat. #51001). Enzyme activity assay was carried out in a white 384-well plate in a final volume of 20 μl, as follow: • 4 μl of vehicle or studied compound 2.5× concentrated prepared in assay buffer (50 mM Tris-HCl, 10 mM NaCl, 4 mM DTT, 0.01% Tween-20 pH9). Final percentage of DMSO was 0.5%. • 2 μl of 1 nM G9a enzyme diluted in assay buffer. […] Final concentration 150 nM. • Then, add 5 μl of streptavidin XL665 beads. Final concentration of 16 μM. • Read the plate after 1 hour of incubation at room temperature.
(§1) For each well, fluorescence was measured at 620 nm and 665 nm. A ratio (665 nm/620 nm) was then calculated in order to minimize medium interferences. Positive control was obtained in the presence of the vehicle of the compounds. Negative control was obtained in the absence of G9a enzyme activity. Calculated IC50 values were determined using GraphPrism using 4-parameters inhibition curve.

[2] = target: T2, human DNMT1 (Homo sapiens, UniProt P26358); experiment: DNMT1 enzyme activity assay (TR-FRET, EPIgeneous methyltransferase assay); format: biochemical; details: human DNMT1, 15 minutes at 37° C.
T2 construct: purchased Reaction Biology Corp. DMT-21-124
Procedure: DNMT1 Enzyme Activity Assay
The biochemical assay to measure DNMT1 enzyme activity relies on time-resolved fluorescence energy transfer (TR-FRET) between lumi4-Tb (donor) and d2 (acceptor) using the EPIgeneous methyltransferase assay (CisBio Cat#62SAHPEB). […] TR-FRET signal is inversely proportional to the concentration of SAH, product of DNMT1 enzyme activity, in the sample. The human DNMT1 was obtained from Reaction Biology Corp. (Cat# DMT-21-124).
Enzyme activity assay was carried out in a white 384-well plate in a final volume of 20 μl, as follow: • 4 μl of vehicle or studied compound 2.5× concentrated prepared in assay buffer (50 mM Tris-HCl, 1 mM EDTA, 1 mM DTT, 0.1% Triton X-100, 5% glycerol pH 7.5). Final percentage of DMSO was 0.5%. • 2 μl of 1 nM DNMT1 enzyme diluted in assay buffer.
as §1, with “compounds.” for “compounds. Negative control was obtained in the absence of G9a enzyme activity.”

T2 sequence (P26358 whole entry): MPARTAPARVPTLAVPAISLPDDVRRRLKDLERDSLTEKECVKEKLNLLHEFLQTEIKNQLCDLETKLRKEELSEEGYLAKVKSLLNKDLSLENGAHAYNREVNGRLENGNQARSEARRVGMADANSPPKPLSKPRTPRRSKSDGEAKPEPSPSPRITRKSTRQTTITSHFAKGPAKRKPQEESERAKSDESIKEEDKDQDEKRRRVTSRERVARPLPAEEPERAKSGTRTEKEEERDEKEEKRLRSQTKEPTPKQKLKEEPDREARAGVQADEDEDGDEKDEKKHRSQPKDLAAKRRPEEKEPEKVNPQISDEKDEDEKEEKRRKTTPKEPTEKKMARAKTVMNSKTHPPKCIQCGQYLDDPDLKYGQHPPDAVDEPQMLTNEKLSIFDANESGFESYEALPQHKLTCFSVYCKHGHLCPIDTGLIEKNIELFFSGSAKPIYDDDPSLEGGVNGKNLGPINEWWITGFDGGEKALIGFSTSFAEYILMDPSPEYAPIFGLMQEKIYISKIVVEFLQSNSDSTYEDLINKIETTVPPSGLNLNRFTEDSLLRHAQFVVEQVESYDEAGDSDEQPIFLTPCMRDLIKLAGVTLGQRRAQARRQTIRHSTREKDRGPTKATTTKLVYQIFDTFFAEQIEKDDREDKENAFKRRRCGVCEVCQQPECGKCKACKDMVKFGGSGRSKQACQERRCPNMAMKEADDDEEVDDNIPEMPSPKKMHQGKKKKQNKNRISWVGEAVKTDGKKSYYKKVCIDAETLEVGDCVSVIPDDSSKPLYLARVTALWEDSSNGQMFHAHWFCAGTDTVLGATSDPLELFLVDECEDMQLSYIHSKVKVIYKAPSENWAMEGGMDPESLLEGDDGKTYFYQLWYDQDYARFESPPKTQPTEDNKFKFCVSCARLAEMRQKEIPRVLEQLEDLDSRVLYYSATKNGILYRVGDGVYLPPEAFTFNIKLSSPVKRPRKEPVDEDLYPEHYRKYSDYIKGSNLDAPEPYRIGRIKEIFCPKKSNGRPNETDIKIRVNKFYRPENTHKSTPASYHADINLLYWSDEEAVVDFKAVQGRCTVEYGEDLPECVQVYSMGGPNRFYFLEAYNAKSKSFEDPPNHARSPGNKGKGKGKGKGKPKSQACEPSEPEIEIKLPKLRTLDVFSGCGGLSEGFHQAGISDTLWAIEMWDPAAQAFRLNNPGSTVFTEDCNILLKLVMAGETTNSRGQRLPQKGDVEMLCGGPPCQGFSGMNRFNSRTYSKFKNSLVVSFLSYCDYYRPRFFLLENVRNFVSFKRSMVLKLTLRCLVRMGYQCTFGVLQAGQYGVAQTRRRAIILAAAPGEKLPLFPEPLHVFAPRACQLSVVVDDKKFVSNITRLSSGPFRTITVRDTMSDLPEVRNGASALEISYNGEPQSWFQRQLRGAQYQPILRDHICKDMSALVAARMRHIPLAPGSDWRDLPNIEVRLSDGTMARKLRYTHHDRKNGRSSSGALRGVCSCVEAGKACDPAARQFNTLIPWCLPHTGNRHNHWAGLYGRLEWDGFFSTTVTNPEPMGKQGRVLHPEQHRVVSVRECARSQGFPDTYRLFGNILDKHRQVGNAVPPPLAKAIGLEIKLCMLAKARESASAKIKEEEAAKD

| Structure (SMILES) | IC50 [1] [nM] | IC50 [2] [nM] |
| --- | --- | --- |
| COc1cc2c(N(C)C3CCN(C)CC3)cc(-c3cc(C)oc3C)nc2cc1OCCCN1CCCC1 [Compound 1-05] | 1000 to 10000 | 1000 to 10000 |
| COc1cc2c(N(C)CC3CCN(C)CC3)cc(-c3ccc(C)[nH]3)nc2cc1OCCCN1CCCC1 [Compound 1-06] | 100 to 500 | 100 to 500 |
| COc1cc2c(N(C)C3CCN(C)CC3)cc(-c3ccc(C)[nH]3)nc2cc1OCCCN1CCCC1 [Compound 1-07] | < 100 | 500 to 1000 |
| COc1cc2c(N(C)C3CC4(CCN(C)CC4)C3)cc(-c3ccc(C)o3)nc2cc1OCC1CCN(C)CC1 [Compound 1-08, 6-methoxy-N-methyl-N-(7-methyl-7-azaspiro[3.5]nonan-2-yl)-2-(5-methyl-2-furyl)-7-[(1-methyl-4-piperidyl)methoxy]quinolin-4-amine] | > 10000 | 1000 to 10000 |
| COc1cc2c(N(C)C3CC4(CCN(C(C)C)CC4)C3)cc(-c3ccc(C)o3)nc2cc1OCCCN1CCCC1 [Compound 1-09] | 500 to 1000 | 500 to 1000 |
| CCc1ccc(-c2cc(N(C)CC3CCN(C)CC3)c3cc(OC)c(OC4CC5(C4)CN(C)C5)cc3n2)o1 [Compound 1-10] | > 10000 | 1000 to 10000 |
| COc1cc2c(N(C)C)cc(-c3ccc(C)[nH]3)nc2cc1OCCCN1CCCC1 [Compound 1-11] | 100 to 500 | 1000 to 10000 |
| COc1cc2c(N(C)C)cc(-c3ccc(C)o3)nc2cc1OCCCN1CCCC1 [Compound 1-12] | 1000 to 10000 | 1000 to 10000 |
| COc1cc2c(N(C)C3CC4(CCN(C(C)C)CC4)C3)cc(-c3ccc(C)o3)nc2cc1OC1CC2(C1)CN(C)C2 (stereo not drawn) [Compound 1-14] | > 10000 | 1000 to 10000 |
| COc1cc2c(N(C)C3CC4(CCN(C(C)C)CC4)C3)cc(-c3ccc(C)o3)nc2cc1OC1CC2(C1)CN(CC#N)C2 (stereo not drawn) [Compound 1-15] | > 10000 | 1000 to 10000 |
| CCc1ccc(-c2cc(N(C)CC3CCN(C)CC3)c3cc(OC)c(OCC4CCN(C)CC4)cc3n2)o1 [Compound 1-16] | > 10000 | 1000 to 10000 |
| COc1cc2c(N(C)C3CCC4(CC3)CN(C)C4)cc(-c3ccc(C)o3)nc2cc1OCCCN1CCCC1 [Compound 1-18] | 1000 to 10000 | 1000 to 10000 |
| COc1cc2c(N(C)CC3CCN(C)CC3)cc(-c3cc(C)oc3C)nc2cc1OCCCN1CCCC1 [Compound 1-19] | 500 to 1000 | 500 to 1000 |
| COc1cc2c(N(C)CC3CCN(C)CC3)cc(-c3ccc(C)o3)nc2cc1OCCCN1CCC(F)C1 (stereo not drawn) [Compound 1-20] | > 10000 | 1000 to 10000 |
| COc1cc2c(N(C)CC3CCN(C)CC3)cc(C3CCCCC3)nc2cc1OCCCN1CCCC1 [Compound 1-21, 2-cyclohexyl-6-methoxy-N-methyl-N-[(1-methyl-4-piperidyl)methyl]-7-(3-pyrrolidin-1-ylpropoxy)quinolin-4-amine] | 100 to 500 | 1000 to 10000 |
| COc1cc2c(N(C)CC3CCN(C)CC3)cc(-c3ccccc3)nc2cc1OCCCN1CCCC1 [Compound 1-22] | 1000 to 10000 | 500 to 1000 |
| COc1cc2c(N(C)CC3CCNCC3)cc(-c3ccccc3)nc2cc1OCCCN1CCCC1 [Compound 1-23, 6-methoxy-N-methyl-2-phenyl-N-(4-piperidylmethyl)-7-(3-pyrrolidin-1-ylpropoxy)quinolin-4-amine] | 100 to 500 | 500 to 1000 |
| CNC1CCN(c2cc(-c3ccc(C)o3)nc3cc(OCCCN4CCCC4)c(OC)cc23)CC1 [Compound 2-01, 1-[6-methoxy-2-(5-methyl-2-furyl)-7-(3-pyrrolidin-1-ylpropoxy)-4-quinolyl]-N-methyl-piperidin-4-amine] | 1000 to 10000 | 500 to 1000 |
| COc1cc2c(N3CCC(CO)CC3)cc(-c3ccc(C)o3)nc2cc1OCCCN1CCCC1 [Compound 2-02] | 1000 to 10000 | 1000 to 10000 |
| CNC1CCN(c2cc(-c3ccc(C)[nH]3)nc3cc(OCCCN4CCCC4)c(OC)cc23)CC1 [Compound 2-03] | 100 to 500 | 500 to 1000 |
| CNC1CCN(c2cc(-c3ccc4occc4c3)nc3cc(OCCCN4CCCC4)c(OC)cc23)CC1 [Compound 2-04] | > 10000 | 1000 to 10000 |
| COc1cc2c(N3CCC(N(C)C)CC3)cc(-c3ccc(C)[nH]3)nc2cc1OCCCN1CCCC1 [Compound 2-05, 1-[6-methoxy-2-(5-methyl-1H-pyrrol-2-yl)-7-(3-pyrrolidin-1-ylpropoxy)-4-quinolyl]-N,N-dimethyl-piperidin-4-amine] | 100 to 500 | 100 to 500 |
| COc1cc2c(N3CCC(C(C)(C)N)CC3)cc(-c3ccc(C)o3)nc2cc1OCCCN1CCCC1 [Compound 2-07] | 500 to 1000 | 1000 to 10000 |
| CNCC1CCN(c2cc(C3CCCCC3)nc3cc(OCCCN4CCCC4)c(OC)cc23)CC1 [Compound 2-08, 1-[1-[2-cyclohexyl-6-methoxy-7-(3-pyrrolidin-1-ylpropoxy)-4-quinolyl]-4-piperidyl]-N-methyl-methanamine] | < 100 | 1000 to 10000 |
| CNCC1CCN(c2cc(-c3ccccc3)nc3cc(OCCCN4CCCC4)c(OC)cc23)CC1 [Compound 2-09] | 100 to 500 | 1000 to 10000 |
| COc1cc2c(OCC3CCN(C)CC3)cc(-c3ccc(C)o3)nc2cc1OCCCN1CCCC1 [Compound 3-02] | 1000 to 10000 | 500 to 1000 |
| COc1cc2c(OCC3CCN(C)CC3)cc(-c3ccc(C)[nH]3)nc2cc1OCCCN1CCCC1 [Compound 3-03] | 100 to 500 | 500 to 1000 |
| COc1cc2c(OC3CCN(C)CC3)cc(-c3ccc(C)o3)nc2cc1OC1CC2(C1)CN(C)C2 [Compound 3-06, 6-methoxy-7-[(2-methyl-2-azaspiro[3.3]heptan-6-yl)oxy]-2-(5-methyl-2-furyl)-4-[(1-methyl-4-piperidyl)oxy]quinoline] | > 10000 | 1000 to 10000 |
| COc1cc2c(C3CCN(C)CC3)cc(-c3ccc(C)o3)nc2cc1OCCCN1CCCC1 [Compound 4-02, 6-methoxy-2-(5-methyl-2-furyl)-4-(1-methyl-4-piperidyl)-7-(3-pyrrolidin-1-ylpropoxy)quinoline] | 1000 to 10000 | 1000 to 10000 |
| COc1cc2c(C=C3CCN(C)CC3)cc(-c3ccc(C)o3)nc2cc1OCCCN1CCCC1 [Compound 5-01, 6-methoxy-2-(5-methyl-2-furyl)-4-[(1-methyl-4-piperidylidene)methyl]-7-(3-pyrrolidin-1-ylpropoxy)quinoline] | > 10000 | 1000 to 10000 |
